Data taken from the NIST ThermoML archive (doi:10.1016/j.fluid.2015.06.041).
Numbers after ± are expanded uncertainties.

Key:
[1] = 101.33 kPa, Liquid; for viscosity: Capillary tube (Ostwald / Ubbelohde) method; for mass density: Vibrating tube method
[2] = xn = mol fraction of the nth substance listed; conditions: 101 kPa, Liquid, x1 = 1; for viscosity: Capillary tube (Ostwald / Ubbelohde) method; for speed of sound: Frequency=2 MHz, Linear variable-path acoustic interferometer; for mass density: Vibrating tube method

Row | Structure (SMILES) | viscosity ([1]; 298.15 K) | mass density ([1]; 298.15 K) | viscosity ([1]; 308.15 K) | mass density ([1]; 308.15 K) | viscosity ([1]; 318.15 K) | mass density ([1]; 318.15 K) | viscosity ([2]; 298.15 K) | speed of sound ([2]; 298.15 K) | mass density ([2]; 298.15 K) | viscosity ([2]; 308.15 K) | mass density ([2]; 308.15 K) | viscosity ([2]; 318.15 K) | mass density ([2]; 318.15 K) | viscosity ([2]; 298.18 K)
1 | ClCCCl [1,2-dichloroethane] | 0.7804 ± 0.024 mPa·s | 1246.37 ± 0.17 kg/m3 | 0.6744 ± 0.021 mPa·s | 1231.21 ± 0.16 kg/m3 | 0.5719 ± 0.017 mPa·s | 1214.55 ± 0.16 kg/m3 |  |  |  |  |  |  |  | 
2 | C1COCCO1 [1,4-dioxane] | 1.178 ± 0.036 mPa·s | 1027.79 ± 0.11 kg/m3 | 1.009 ± 0.031 mPa·s | 1016.78 ± 0.11 kg/m3 | 0.8896 ± 0.027 mPa·s | 1005.24 ± 0.11 kg/m3 |  |  |  |  |  |  |  | 
3 | C1COCCO1 [1,4-dioxane] + ClCCCl |  |  |  |  |  |  | 1.178 ± 0.036 mPa·s | 1343.4 ± 1.4 m/s | 1027.79 ± 0.11 kg/m3 | 1.009 ± 0.031 mPa·s | 1016.78 ± 0.11 kg/m3 | 0.8896 ± 0.027 mPa·s | 1005.24 ± 0.11 kg/m3 | 
4 | C1COCCO1 [1,4-dioxane] + NCCN |  |  |  |  |  |  |  | 1343.4 ± 1.4 m/s | 1027.79 ± 0.11 kg/m3 | 1.009 ± 0.031 mPa·s | 1016.78 ± 0.11 kg/m3 | 0.8896 ± 0.027 mPa·s | 1005.24 ± 0.11 kg/m3 | 1.178 ± 0.036 mPa·s
5 | C1COCCO1 [1,4-dioxane] + NCCO |  |  |  |  |  |  | 1.178 ± 0.036 mPa·s | 1343.4 ± 1.4 m/s | 1027.79 ± 0.11 kg/m3 | 1.009 ± 0.031 mPa·s | 1016.78 ± 0.11 kg/m3 | 0.8896 ± 0.027 mPa·s | 1005.24 ± 0.11 kg/m3 | 
6 | NCCO [2-aminoethan-1-ol] | 18.95 ± 0.58 mPa·s | 1011.79 ± 0.24 kg/m3 | 11.96 ± 0.37 mPa·s | 1004.68 ± 0.23 kg/m3 | 7.913 ± 0.24 mPa·s | 998.15 ± 0.23 kg/m3 |  |  |  |  |  |  |  | 
7 | NCCN [ethane-1,2-diamine] | 1.276 ± 0.039 mPa·s | 894.79 ± 0.23 kg/m3 | 1.107 ± 0.034 mPa·s | 885.63 ± 0.24 kg/m3 | 0.9445 ± 0.029 mPa·s | 867.62 ± 0.24 kg/m3 |  |  |  |  |  |  |  | 
